Laboratory results from ChEMBL document CHEMBL1201862, “PubChem BioAssay data set” (2004).
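Briefly, cells in 96-well plates were exposed to five compound concentrations for 48 h, and endpoints were estimated by linear interpolation. The concentration for 50% growth inhibition is given as GI50.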 The source made the active and inactive calls. Cut-off read from the data, not from the text of the source: active = GI50 up to about 1.1 µM and inactive = higher.

Legend:
Assay in all cases: inhibition of tumour cell growth, NCI panel, 48 h
A498 = system: A498
ACHN = system: ACHN
EKVX = system: EKVX
HCT-15 = system: HCT-15
HL-60 = system: HL-60
IGROV-1 = system: IGROV-1
M14 = system: M14
MOLT-4 = system: MOLT-4
NCI-H460 = system: NCI-H460
OVCAR-8 = system: OVCAR-8
RXF 393 = system: RXF 393
SF-295 = system: SF-295
SK-MEL-2 = system: SK-MEL-2
SN12C = system: SN12C
TK-10 = system: TK-10
UACC-257 = system: UACC-257
UO-31 = system: UO-31
SNB-75 = system: SNB-75
NCI-H522 = system: NCI-H522
OVCAR-4 = system: OVCAR-4

| Compound | GI50 (A498) | GI50 (ACHN) | GI50 (EKVX) | GI50 (HCT-15) [µM] | GI50 (HL-60) | GI50 (IGROV-1) | GI50 (M14) | GI50 (MOLT-4) | GI50 (NCI-H460) | GI50 (OVCAR-8) | GI50 (RXF 393) | GI50 (SF-295) | GI50 (SK-MEL-2) | GI50 (SN12C) | GI50 (TK-10) | GI50 (UACC-257) | GI50 (UO-31) | GI50 (SNB-75) | GI50 (NCI-H522) | GI50 (OVCAR-4) |
| --- | --- | --- | --- | --- | --- | --- | --- | --- | --- | --- | --- | --- | --- | --- | --- | --- | --- | --- | --- | --- |
| CCOC(=O)c1c(N=C(S)Nc2ccccc2)sc2c1CCN(C)C2 | > 100 µM (inactive) | > 100 µM (inactive) | > 100 µM (inactive) | > 100 | > 100 µM (inactive) | > 100 µM (inactive) | > 100 µM (inactive) | > 100 µM (inactive) | > 100 µM (inactive) | > 100 µM (inactive) | > 100 µM (inactive) | > 100 µM (inactive) | > 100 µM (inactive) | > 100 µM (inactive) | > 100 µM (inactive) | > 100 µM (inactive) | > 100 µM (inactive) | – | – | – |
| CCOC(=O)c1c(N)sc2c1C(C(=O)OCC)CCC2 (stereo unspecified) | 12.1 µM (inactive) | > 100 µM (inactive) | 55.8 µM (inactive) | > 100 | 53.3 µM (inactive) | > 100 µM (inactive) | > 100 µM (inactive) | > 100 µM (inactive) | > 100 µM (inactive) | > 100 µM (inactive) | > 100 µM (inactive) | – | > 100 µM (inactive) | > 100 µM (inactive) | > 100 µM (inactive) | > 100 µM (inactive) | 47.4 µM (inactive) | > 100 µM (inactive) | – | – |
| CCC(=O)CC(=O)CCC(=O)Nc1cc(C)ccc1C | > 100 µM (inactive) | > 100 µM (inactive) | > 100 µM (inactive) | > 100 | > 100 µM (inactive) | > 100 µM (inactive) | > 100 µM (inactive) | > 100 µM (inactive) | > 100 µM (inactive) | > 100 µM (inactive) | > 100 µM (inactive) | > 100 µM (inactive) | > 100 µM (inactive) | > 100 µM (inactive) | > 100 µM (inactive) | – | > 100 µM (inactive) | > 100 µM (inactive) | > 100 µM (inactive) | – |
| O=C(c1cccs1)N(C(=O)N1CCN(c2ccccc2)CC1)S(=O)(=O)c1ccccc1 | 62.2 µM (inactive) | 19.3 µM (inactive) | 16.7 µM (inactive) | 28.5 | 19.4 µM (inactive) | – | 17.7 µM (inactive) | 20.2 µM (inactive) | 28.2 µM (inactive) | 18.6 µM (inactive) | – | 28.1 µM (inactive) | 18.7 µM (inactive) | 17.5 µM (inactive) | 31.8 µM (inactive) | 23.8 µM (inactive) | 18.5 µM (inactive) | 14.2 µM (inactive) | 15.6 µM (inactive) | 34.7 µM (inactive) |
| COc1ccc2c(-c3ccc(OCCN(C)C)cc3)c(Oc3ccc(Cl)cc3)c(=O)oc2c1 | 14 µM (inactive) | 7.23 µM (inactive) | 11.5 µM (inactive) | 3.35 | – | 3.37 µM (inactive) | 1.74 µM (inactive) | 2.13 µM (inactive) | 5.58 µM (inactive) | 8.36 µM (inactive) | 4.18 µM (inactive) | 2.12 µM (inactive) | 5 µM (inactive) | 20.2 µM (inactive) | 7.82 µM (inactive) | 2.05 µM (inactive) | 3.28 µM (inactive) | 7.19 µM (inactive) | 4.07 µM (inactive) | 20 µM (inactive) |
| C/C=C1/CN2CCC34c5ccccc5N(C)C23C2CC1C4(C(=O)OC)C(OC(C)=O)O2 (stereo unspecified) | > 100 µM (inactive) | > 100 µM (inactive) | > 100 µM (inactive) | > 100 | > 100 µM (inactive) | > 100 µM (inactive) | > 100 µM (inactive) | > 100 µM (inactive) | > 100 µM (inactive) | > 100 µM (inactive) | – | > 100 µM (inactive) | > 100 µM (inactive) | > 100 µM (inactive) | > 100 µM (inactive) | > 100 µM (inactive) | > 100 µM (inactive) | > 100 µM (inactive) | > 100 µM (inactive) | > 100 µM (inactive) |
| COC(=O)C1=C(\c2ccccc2)c2ccccc2C(=O)N(C2CCCCC2)/C=C\1 | 30.1 µM (inactive) | 15.6 µM (inactive) | 52.6 µM (inactive) | 24.1 | 21.3 µM (inactive) | 25.8 µM (inactive) | 28.6 µM (inactive) | > 100 µM (inactive) | 16.1 µM (inactive) | 38.9 µM (inactive) | – | 28 µM (inactive) | 12.9 µM (inactive) | 28.3 µM (inactive) | 41.3 µM (inactive) | 12.5 µM (inactive) | 22.6 µM (inactive) | 65.6 µM (inactive) | 36.4 µM (inactive) | 27.7 µM (inactive) |
| CON(C)C(=O)C1CCCO1 (stereo unspecified) | > 100 µM (inactive) | > 100 µM (inactive) | 39.5 µM (inactive) | > 100 | 34.5 µM (inactive) | > 100 µM (inactive) | > 100 µM (inactive) | > 100 µM (inactive) | > 100 µM (inactive) | > 100 µM (inactive) | – | > 100 µM (inactive) | > 100 µM (inactive) | > 100 µM (inactive) | > 100 µM (inactive) | 57.5 µM (inactive) | > 100 µM (inactive) | > 100 µM (inactive) | > 100 µM (inactive) | > 100 µM (inactive) |
| NC(=S)N1N=C2CCCCCC[C@@H]2[C@H]1c1ccccc1 | 75 µM (inactive) | 41.9 µM (inactive) | 27.7 µM (inactive) | 28.4 | 19.2 µM (inactive) | 63.2 µM (inactive) | 74.5 µM (inactive) | 31.8 µM (inactive) | 35.2 µM (inactive) | 44.5 µM (inactive) | 95.9 µM (inactive) | 35.3 µM (inactive) | 64.6 µM (inactive) | 86.1 µM (inactive) | 63 µM (inactive) | 36.6 µM (inactive) | 16.7 µM (inactive) | 75.2 µM (inactive) | 21.2 µM (inactive) | – |
| CC(C)=CCC/C(C)=C/CC/C(C)=C/[C@@H]1[C@@H](CO)[C@]1(C)CC/C=C(\C)CCC=C(C)C | > 100 µM (inactive) | 17.2 µM (inactive) | 20.2 µM (inactive) | 30.3 | – | 12.5 µM (inactive) | 91.4 µM (inactive) | 28.9 µM (inactive) | 47.6 µM (inactive) | 17.1 µM (inactive) | 23.7 µM (inactive) | 60.8 µM (inactive) | 43.8 µM (inactive) | 41.1 µM (inactive) | 55.2 µM (inactive) | 74.3 µM (inactive) | 18.6 µM (inactive) | > 100 µM (inactive) | 17.1 µM (inactive) | > 100 µM (inactive) |
| CCCC#CCOC(=O)c1cc([N+](=O)[O-])cc([N+](=O)[O-])c1 | > 100 µM (inactive) | > 100 µM (inactive) | > 100 µM (inactive) | > 100 | > 100 µM (inactive) | > 100 µM (inactive) | > 100 µM (inactive) | > 100 µM (inactive) | > 100 µM (inactive) | > 100 µM (inactive) | – | > 100 µM (inactive) | > 100 µM (inactive) | > 100 µM (inactive) | > 100 µM (inactive) | > 100 µM (inactive) | > 100 µM (inactive) | > 100 µM (inactive) | 43.4 µM (inactive) | – |
| COc1ccc(Cc2c(N)[nH]c(=O)[nH]c2=O)cc1 | > 100 µM (inactive) | > 100 µM (inactive) | > 100 µM (inactive) | > 100 | – | > 100 µM (inactive) | > 100 µM (inactive) | – | > 100 µM (inactive) | > 100 µM (inactive) | > 100 µM (inactive) | > 100 µM (inactive) | > 100 µM (inactive) | > 100 µM (inactive) | > 100 µM (inactive) | > 100 µM (inactive) | 90.2 µM (inactive) | > 100 µM (inactive) | > 100 µM (inactive) | > 100 µM (inactive) |
| O=C(O)C(O)c1ccc(F)cc1 (stereo unspecified) | > 100 µM (inactive) | > 100 µM (inactive) | > 100 µM (inactive) | > 100 | – | > 100 µM (inactive) | > 100 µM (inactive) | > 100 µM (inactive) | > 100 µM (inactive) | > 100 µM (inactive) | > 100 µM (inactive) | > 100 µM (inactive) | > 100 µM (inactive) | > 100 µM (inactive) | > 100 µM (inactive) | > 100 µM (inactive) | > 100 µM (inactive) | > 100 µM (inactive) | > 100 µM (inactive) | > 100 µM (inactive) |
| C/C(CC(=O)Nc1ccc(C)cc1C)=N/N=C(N)N | > 100 µM (inactive) | > 100 µM (inactive) | > 100 µM (inactive) | – | > 100 µM (inactive) | > 100 µM (inactive) | > 100 µM (inactive) | > 100 µM (inactive) | > 100 µM (inactive) | > 100 µM (inactive) | > 100 µM (inactive) | > 100 µM (inactive) | > 100 µM (inactive) | – | > 100 µM (inactive) | > 100 µM (inactive) | > 100 µM (inactive) | > 100 µM (inactive) | > 100 µM (inactive) | – |
| OCC(O)COCn1cc(Cn2ncc3c(NCc4ccccc4)ncnc32)nn1 (stereo unspecified) | > 100 µM (inactive) | > 100 µM (inactive) | > 100 µM (inactive) | > 100 | > 100 µM (inactive) | > 100 µM (inactive) | > 100 µM (inactive) | > 100 µM (inactive) | – | > 100 µM (inactive) | – | > 100 µM (inactive) | > 100 µM (inactive) | > 100 µM (inactive) | > 100 µM (inactive) | > 100 µM (inactive) | > 100 µM (inactive) | – | 18.7 µM (inactive) | > 100 µM (inactive) |
| COc1ccc(/C=C2\CCCc3ccccc3C2=O)cc1 | 0.104 µM (active) | 3.15 µM (inactive) | 0.39 µM (active) | 0.0723 | 0.279 µM (active) | 0.0573 µM (active) | 0.0335 µM (active) | 1.63 µM (inactive) | 0.0893 µM (active) | 0.228 µM (active) | – | 0.026 µM (active) | – | 0.117 µM (active) | 9.06 µM (inactive) | 3.13 µM (inactive) | 1.64 µM (inactive) | 0.0649 µM (active) | < 0.0218 µM (active) | 14.5 µM (inactive) |
